Our source for the microsomal CLint and half-life values is ChEMBL document CHEMBL5357025, “Perceptual Modifying Compounds and Their Potential Therapeutic Applications in Neuropsychiatric Disorders” (ACS Med Chem Lett, 2024).

Data set [1] is described as follows: Metabolic stability in pooled human liver microsomes assessed as intrinsic clearance at 1 uM preincubated with compound followed by NADPH addition and measured upto 45 mins by LC-MS/MS analysis. To be noted: read-out: CLH. The format is ADME, Microsome.
The nature of data set [2]: Metabolic stability in pooled human liver microsomes assessed as half-life at 1 uM preincubated with compound followed by NADPH addition and measured upto 45 mins by LC-MS/MS analysis. The data set is classed as ADME, Microsome. (In general: Liver microsomes are a subcellular fraction often used to study metabolism.)

The structures appear in SMILES notation.

`[2H]C([2H])([2H])N1C[C@H](C(=O)N(CC)CC)C=C2c3cccc4[nH]c(Br)c(c34)C[C@H]21`: the microsomal CLint at 1 µM in data set [1] turned out to be 49.4 µL/min/mg. For the same compound, the half-life – broadly, the time needed for the level to fall by half in the phase considered – at 1 µM in data set [2] amounted to 28.1 min.
The matching figures for `[2H]C([2H])([2H])N1C[C@H](C(=O)N(C([2H])([2H])C([2H])([2H])[2H])C([2H])([2H])C([2H])([2H])[2H])C=C2c3cccc4[nH]c(Br)c(c34)C[C@H]21`: 38.8 µL/min/mg and 35.7 min.
The matching figures for `[2H]C([2H])([2H])C([2H])([2H])N(C(=O)[C@@H]1C=C2c3cccc4[nH]cc(c34)C[C@H]2N(C)C1)C([2H])([2H])C([2H])([2H])[2H]`: 17.2 µL/min/mg and 80.8 min.
For `[2H]c1[nH]c2cccc3c2c1C[C@@H]1C3=C[C@@H](C(=O)N(CC)CC)CN1C`, the microsomal CLint at 1 µM in data set [1] is 17.8 µL/min/mg. The half-life at 1 µM in data set [2] turned out to be 77.7 min.
The matching figures for `[2H]C([2H])([2H])C([2H])([2H])N(C(=O)[C@@H]1C=C2c3cccc4[nH]c(Br)c(c34)C[C@H]2N(C)C1)C([2H])([2H])C([2H])([2H])[2H]`: 44.6 µL/min/mg and 31.1 min.
The matching figures for `CCN(CC)C(=O)[C@@H]1C=C2c3cccc4[nH]c(Br)c(c34)C[C@H]2N(C)C1`: 56.3 µL/min/mg and 24.6 min.
The matching figures for `[2H]c1[nH]c2c([2H])c([2H])c([2H])c3c2c1C[C@@H]1C3=C[C@@H](C(=O)N(CC)CC)CN1C`: 16.7 µL/min/mg and 82.8 min.
Take `[2H]c1c([2H])c2c3c(c(Br)[nH]c3c1[2H])C[C@@H]1C2=C[C@@H](C(=O)N(CC)CC)CN1C`: the microsomal CLint at 1 µM in data set [1] was found to be 52.6 µL/min/mg. Moreover, the half-life at 1 µM in data set [2] was 26.3 min.
